Patent publication US4771041A, “Method for combating virus infection” (priority 1976, dated 1988)

Columns and labels:
[1] = biological target: type A influenza virion-associated RNA polymerase (Influenza A virus (A/nt/60/1968(H3N2)), UniProt P03432); assay: Inhibition of type A influenza virion-associated RNA polymerase; type: biochemical, Influenza A2 Aichi virus; settings: mean of two experiments
Description: (§1) Polymerases, nucleic acid template nucleoside triphosphates, of which guanosine triphosphate is tritium-labelled, salt and buffer are mixed at 0° C. in a total volume of 125 μl (for herpes DNA polymerase, see F. below). The concentrations of the nucleoside triphosphates UTP (uridine triphosphate), CTP (cytidinetriphosphate), GTP (guanosinetriphosphate) and ATP (adenosinetriphosphate) were generall 400, 400, 400, and 2000 μM, respectively. The test compound is also added in various concentrations to the mixture obtained. A standard mixture without test compound is also prepared using the same amounts of the ingredients. The enzyme reaction, i.e. synthesis of nucleic acid, is started by incubating the mixture at 37° C. For influenza RNA polymerases the temperature is 33° C. The reaction is allowed to proceed for 60 minutes in the assay of influenza and Micrococcus polymerases. For E.coli DNA dependent RNA polymerase the time is 20 min. and for herpes DNA polymerase 30 minutes. The incubation time for calf thymus polymerases is 10 minutes. The incorporation of labelled monomer into trichloroacetic acid insoluble nucleic acid product was measured in the following way. Before and after the incubation period 50 μl are withdrawn from the mixture and applied to filter discs. These are put in 5% trichloroacetic acid solution and washed several times. After drying the discs are measured for radioactivity in a liquid scintillation counter. The difference in radioactivity between samples with and without added compound is used to calculate the inhibition of the polymerase activity. The inhibition is expressed as percentage inhibition using the radioactivity of the standard sample as basis.
A. Inhibition by phosphonoformic acid of type A influenza virion associated RNA polymerase
Influenza A2 Aichi virus was purified according to the method of Pons and Hirst, Virology 34 385 (1968). The assay mixture is described by Bishop, Obijeski and Simpson, J. Virol. 8 66 (1971).

[2] = biological target: Micrococcus luteus DNA dependent DNA polymerase (Micrococcus luteus, UniProt C5CBM1); assay: Inhibition of Micrococcus luteus DNA dependent DNA polymerase; type: biochemical
Chain of Micrococcus luteus DNA dependent DNA polymerase (C5CBM1 entry or part of it): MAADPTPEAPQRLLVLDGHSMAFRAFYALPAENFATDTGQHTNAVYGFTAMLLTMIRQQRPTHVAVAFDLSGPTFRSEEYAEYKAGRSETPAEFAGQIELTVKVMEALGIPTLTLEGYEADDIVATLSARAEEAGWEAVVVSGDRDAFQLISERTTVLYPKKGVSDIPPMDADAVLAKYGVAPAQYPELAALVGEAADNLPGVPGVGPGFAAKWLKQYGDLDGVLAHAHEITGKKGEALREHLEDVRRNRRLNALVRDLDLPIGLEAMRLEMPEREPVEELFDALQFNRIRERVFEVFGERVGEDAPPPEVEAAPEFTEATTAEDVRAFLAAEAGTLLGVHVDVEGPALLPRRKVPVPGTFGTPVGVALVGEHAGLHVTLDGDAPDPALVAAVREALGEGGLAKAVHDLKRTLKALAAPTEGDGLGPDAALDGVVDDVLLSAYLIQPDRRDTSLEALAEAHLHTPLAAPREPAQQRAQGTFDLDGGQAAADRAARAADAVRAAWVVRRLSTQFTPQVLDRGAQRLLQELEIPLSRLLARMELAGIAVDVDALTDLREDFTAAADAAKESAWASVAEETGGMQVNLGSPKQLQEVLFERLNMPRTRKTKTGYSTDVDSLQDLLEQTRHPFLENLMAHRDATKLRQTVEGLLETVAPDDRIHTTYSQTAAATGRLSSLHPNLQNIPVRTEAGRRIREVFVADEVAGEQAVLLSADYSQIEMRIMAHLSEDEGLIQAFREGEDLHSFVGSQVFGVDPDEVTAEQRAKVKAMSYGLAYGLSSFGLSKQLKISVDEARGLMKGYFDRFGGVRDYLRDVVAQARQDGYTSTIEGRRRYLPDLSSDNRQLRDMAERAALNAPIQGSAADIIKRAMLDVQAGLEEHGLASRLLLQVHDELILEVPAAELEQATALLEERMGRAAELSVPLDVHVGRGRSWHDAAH
Description: as §1, with “For E.coli DNA dependent RNA polymerase the time is 20 min. and for herpes DNA polymerase 30 minutes. The incubation time for calf thymus polymerases is 10 minutes.” left out, “Before and after the incubation period 50 μl are withdrawn from the mixture and applied to filter discs. These are put in 5% trichloroacetic acid solution and washed several times.” left out, “basis. […]” for “basis.”

herpes simplex type 1 = assay: Herpes simplex type 1 plaque reduction assay on GMK monolayers; type: cell-based; settings: mean of three experiments
Description: The inhibition of influenza virus and herpes virus by phosphonoformic acid has been measured as plaque reaction according to the following procedures.
H. Inhibition by phosphonoformic acid of herpes simplex type 1 plaque
The plaque reduction assay for herpes simplex type 1 was performed on GMK (Green Monkey Kidney) cells as described by Ejereito et el., J. Gen. Virol. 2 (1968) 357. Monolayers on 5 cm petri dishes were used and after virus adsorption phosphonoformic acid was added in the medium.

[3] = biological target: T1, reverse transcriptase from BLV (Bovine leukemia virus, UniProt P03361); assay: Cell-free reverse transcriptase inhibition, BLV; type: biochemical; settings: template/primer (rA)n.(dT)10, read-out: Percent inhibition
T1 construct: Reverse transcriptase from various retroviruses have been tested in cell-free assays; made in house
T1 sequence (P03361 546-1120): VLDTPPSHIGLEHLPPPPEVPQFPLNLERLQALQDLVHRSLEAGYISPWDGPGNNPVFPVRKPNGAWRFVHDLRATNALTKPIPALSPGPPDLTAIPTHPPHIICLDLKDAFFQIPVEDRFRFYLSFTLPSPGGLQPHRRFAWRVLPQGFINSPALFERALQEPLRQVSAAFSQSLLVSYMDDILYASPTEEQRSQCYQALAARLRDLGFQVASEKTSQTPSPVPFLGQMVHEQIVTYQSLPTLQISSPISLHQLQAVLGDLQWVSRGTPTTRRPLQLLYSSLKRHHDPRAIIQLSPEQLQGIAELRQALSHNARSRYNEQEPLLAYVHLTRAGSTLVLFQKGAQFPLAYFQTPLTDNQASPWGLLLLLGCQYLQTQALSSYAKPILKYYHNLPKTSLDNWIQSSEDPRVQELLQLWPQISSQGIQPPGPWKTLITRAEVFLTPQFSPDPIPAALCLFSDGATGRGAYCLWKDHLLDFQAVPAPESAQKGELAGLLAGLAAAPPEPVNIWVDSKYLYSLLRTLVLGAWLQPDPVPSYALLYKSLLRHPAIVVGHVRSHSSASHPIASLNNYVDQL
Description: (§2) Reverse transcriptase from various retroviruses have been tested in cell-free assays for inhibition by phosphonoformic acid and phosphonoacetic acid. The assay conditions have been described by Collaborative Research, Inc, 1365 Main Street, Waltham, Mass., USA "Assay kit for mammalian viral reverse transcriptase". BLV and VV were prepared in this laboratory and all other viruses and viral enzyme were obtained from Dr. K Nilsson, Department of Pathology, University of Uppsala and from Boehringer Mannheim, Germany. Phosphonoformic acid (PFA) and phosphonoacetic acid (PAA) were added at pH 7.2 to the reaction mixtures at the start of the reaction.
(§3) Rauscher murine leukemia virus; RMuLV, visna virus; VV, avian myeloblastosis virus; AMV, bovine leukemia virus; BLV, baboon endogenous virus; BaEV, simian sarcoma virus; SSV.

[4] = biological target: T2, reverse transcriptase from BaEV (Baboon endogenous virus, UniProt P10272); assay: Cell-free reverse transcriptase inhibition, BaEV; type: biochemical; settings: template/primer (rA)n.(dT)10, read-out: Percent inhibition
T2 construct: Reverse transcriptase from various retroviruses have been tested in cell-free assays
T2 sequence (P10272 659-1335): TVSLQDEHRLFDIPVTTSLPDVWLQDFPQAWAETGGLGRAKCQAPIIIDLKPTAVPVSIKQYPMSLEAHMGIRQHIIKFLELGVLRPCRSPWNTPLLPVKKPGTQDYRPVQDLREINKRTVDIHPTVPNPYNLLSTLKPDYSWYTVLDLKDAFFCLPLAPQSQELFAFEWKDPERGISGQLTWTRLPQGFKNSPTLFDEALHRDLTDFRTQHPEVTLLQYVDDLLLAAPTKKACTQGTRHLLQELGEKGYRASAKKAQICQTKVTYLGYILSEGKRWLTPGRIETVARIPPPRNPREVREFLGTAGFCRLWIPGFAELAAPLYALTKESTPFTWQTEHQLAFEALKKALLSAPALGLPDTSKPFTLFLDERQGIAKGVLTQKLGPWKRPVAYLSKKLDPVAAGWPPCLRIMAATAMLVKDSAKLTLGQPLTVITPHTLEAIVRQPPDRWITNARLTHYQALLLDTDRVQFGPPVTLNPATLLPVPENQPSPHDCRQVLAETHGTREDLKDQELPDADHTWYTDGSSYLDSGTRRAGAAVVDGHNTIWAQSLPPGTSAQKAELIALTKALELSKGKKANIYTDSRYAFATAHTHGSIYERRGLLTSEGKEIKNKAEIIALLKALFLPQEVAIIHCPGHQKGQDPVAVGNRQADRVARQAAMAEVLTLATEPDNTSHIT
Description: as §2, §3

[5] = tested on: reverse transcriptase from AMV; assay: Cell-free reverse transcriptase inhibition, AMV; type: biochemical, avian myeloblastosis virus
Description: as §2, §3

[6] = tested on: YBA solid tumors (Moloney virus); assay: Survival of CBA mice bearing YBA solid tumors; type: in vivo; settings: 0.5% in the drinking water, pH 7.2; FIG. 3
Description: The inhibition of reverse transcriptase by phosphonoformic acid (PFA) has prompted an investigation of the effect of PFA on animals with tumors where retroviruses are implicated. Ehrlich ascites tumors (Friend virus) in NMRI mice and YBA solid tumors (Moloney virus) in CBA mice have been used.
NMRI mice were inoculated intraperitoneally with 0.1 ml of a 1/10 dilution of ascitic fluid from a mouse with an Ehrlich ascites tumor. Nine mice were given intraperitoneally 100 mg/kg of PFA per day as a 2% solution at pH 7.2, and 9 mice were treated with 0.95% NaCl ip. CBA mice were inoculated with 7×10^6 cells subcutaneously in the flank. Fifteen CBA mice were given 0.5% PFA at pH 7.2 in the drinking water and fifteen water without addition.

[7] = Toxicity controls with substance in uninfected mice; type: in vivo
Text: Toxicity controls with substance were given to uninfected animals.

cutaneous herpes type 1 = settings: trisodium salt in topical preparations according to examples 15, 16 and 17; preliminary experiments

Chain of type A influenza virion-associated RNA polymerase (Influenza A virus (A/nt/60/1968(H3N2)), UniProt P03432) (P03432 whole entry, looked up): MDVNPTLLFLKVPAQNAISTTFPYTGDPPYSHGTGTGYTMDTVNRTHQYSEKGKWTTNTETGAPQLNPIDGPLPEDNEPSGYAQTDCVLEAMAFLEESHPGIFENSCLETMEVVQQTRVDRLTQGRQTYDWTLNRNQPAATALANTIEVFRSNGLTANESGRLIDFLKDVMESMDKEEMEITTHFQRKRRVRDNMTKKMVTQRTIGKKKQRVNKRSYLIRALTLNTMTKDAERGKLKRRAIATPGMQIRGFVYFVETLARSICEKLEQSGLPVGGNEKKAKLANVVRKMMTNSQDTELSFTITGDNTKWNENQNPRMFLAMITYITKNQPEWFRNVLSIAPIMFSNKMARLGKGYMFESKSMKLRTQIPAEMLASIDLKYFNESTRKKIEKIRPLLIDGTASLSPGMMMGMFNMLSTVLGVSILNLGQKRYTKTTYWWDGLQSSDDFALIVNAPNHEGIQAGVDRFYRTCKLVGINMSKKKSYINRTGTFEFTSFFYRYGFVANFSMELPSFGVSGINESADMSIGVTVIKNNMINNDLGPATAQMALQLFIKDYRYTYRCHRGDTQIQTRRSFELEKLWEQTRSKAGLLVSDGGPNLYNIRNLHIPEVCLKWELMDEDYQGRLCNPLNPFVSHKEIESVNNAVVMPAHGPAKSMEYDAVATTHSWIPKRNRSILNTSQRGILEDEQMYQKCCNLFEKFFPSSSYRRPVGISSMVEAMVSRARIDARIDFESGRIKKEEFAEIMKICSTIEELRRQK

`O=C(O)P(=O)(O)O` [phosphonoformic acid] showed an inhibition at 0.1 µM ([1]; 0.1 μM) of 21%, an inhibition at 0.5 µM ([1]; 0.50 μM) of over 50% and an inhibition at 1 µM ([1]; 1.00 μM) of 79%. It also gave an inhibition at 10 µM ([1]; 10 μM) of 91%, an inhibition at 100 µM ([1]; 100 μM) of 95% and an inhibition at 500 µM ([1]; 500 μM) of 93%. The inhibition at 500 µM [2] was 6%, the inhibition at 1 µM (herpes simplex type 1; Human alphaherpesvirus 1, 1 μM) was 0% and the inhibition at 15 µM (herpes simplex type 1; Human alphaherpesvirus 1, 15 μM) was 50%. It also gave an inhibition at 100 µM (herpes simplex type 1; Human alphaherpesvirus 1, 100 μM) of 90%, an inhibition at 100 µM ([3]; 100 μM) of 88% and an inhibition at 500 µM ([3]; 500 μM) of 93%. It also gave an inhibition at 10 µM ([4]; 10 μM) of 96%, an inhibition at 100 µM ([4]; 100 μM) of over 99% and an inhibition at 500 µM ([4]; 500 μM) of over 99%. For the same molecule, the Percent inhibition ([5]; 10 μM, endogenous template) was 15%, the Percent inhibition ([5]; 10 μM, purified enzyme, (rA)n.(dT)10) was 45% and the Percent inhibition ([5]; 10 μM, template/primer (rA)n.(dT)10) was 43%. For the same molecule, the Percent inhibition ([5]; 100 μM, endogenous template) was 49%, the Percent inhibition ([5]; 100 μM, purified enzyme, (rA)n.(dT)10) was 96% and the Percent inhibition ([5]; 100 μM, template/primer (rA)n.(dT)10) was 94%. It also gave a Percent inhibition ([5]; 500 μM, endogenous template) of 70%, a Percent inhibition ([5]; 500 μM, purified enzyme, (rA)n.(dT)10) of over 99% and a Percent inhibition ([5]; 500 μM, template/primer (rA)n.(dT)10) of 99%. The “survival of mice inoculated with YBA cells” value [6] was “increased survival”, the “deaths in substance control group” value ([7]; 0.5% in the drinking water, 10 mice) was “No mice died” and the “deaths in toxicity control group” value ([7]; uninfected mice, 100 mg/kg/day, 10 animals) was “No mice died”. The therapeutic effect (cutaneous herpes type 1) was “has a therapeutic effect”.
